Measured values taken from patent publication US9981950B2, “Triazoles as NR2B receptor inhibitors” (Janssen Pharmaceuticals, Inc., priority 2014, dated 2018).
One block for each compound: values may come before it.

Assays:
[1] = target: T1, rat NR1/NR2B receptor (Rattus norvegicus (Rat), UniProt P35439+Q00960); assay: NR2B binding assay: inhibition of specific [3H]-Ifenprodil binding to the rat NR1/NR2B receptor; conditions: rat brain membranes, Hill-plot 2-parameter-model
Method: Inhibition of Specific Binding to the Rat NR1/NR2B Receptor
(§1) Male Wistar rats (180 to 200 g) were killed by suffocation in a CO2 chamber for two minutes. Whole brains without cerebellum were removed and dissected on ice, placed into closed vials and stored at −70° C.
Membrane fractions were prepared and tested using standard techniques. At the time of the assay, 1 g of the brains was placed into 25 ml of 50 mM Tris/10 mM EDTA buffer, pH 7.1, (25 vol. per g of original tissue) and homogenized for 30 sec at 20000 rpm with an Ultraturrax T25 (Jahnke & Kunkel, IKA-Labortechnik, Staufen, Germany). The homogenate was centrifuged at 4° C. for 10 min at 48000 g (OPTIMA L-70, Beckman, Palo Alto, Calif. 94304, USA).
The supernatant was discarded and the pellet was homogenized on ice for 30 sec at 20000 rpm with an Ultraturrax and again centrifuged at 48000 g for 30 minutes at 4° C. The resulted pellet was resuspended in 25 ml of 50 mM Tris/10 mM EDTA buffer, homogenized for 30 sec with an Ultraturrax, aliquoted, frozen at −70° C. and stored until use.
(§2) After thawing on the day of the assay, a 5 ml membrane aliquot was centrifuged at 48000 g for 30 min at 4° C. The pellet was resuspended in 5 ml of 5 mM Tris/1 mM EDTA buffer, pH 7.4, homogenized for 30 sec at 20000 rpm with an Ultraturrax and centrifuged at 48000 g for 30 min at 4° C. This was repeated twice. The final pellet was homogenized in 5 ml of 5 mM Tris/l mM EDTA buffer at 4° C. with an Ultraturrax and used for the Ifenprodil-binding assay as described in the following.
Nonspecific binding was estimated in the presence of […] CP101.606. The samples were incubated for 60 min. at 4° C.
The incubation was terminated by filtration of the membrane preparations using Filtermat B (Pharmacia, Uppsala Sweden) and a Micro Cell Harvester (Skatron, Lier, Norway). The Filtermat B had been presoaked with 1% polyethylene imine and carefully washed with 50 mM Tris/HCl-buffer pH 7.7 after the filtration to separate free and bound radioactivity.
The optimal amount of membrane preparation in the assay had been determined and optimized for each membrane preparation separately before the test.
For pipetting of the incubation mixture we routinely used the robot Biomek2000 (Fa. Beckman).
For determination of IC50 values the Hill-plot, 2-parameter-model was used.

[2] = target: hERG-receptor (Homo sapiens (Human), UniProt Q12809); assay: HERGBD: inhibition of specific 3H-Dofetilide binding to the hERG-receptor; conditions: HEK cell membranes with human ERG, Hill-plot 2-parameter-model
hERG-receptor, sequence (Q12809 whole entry): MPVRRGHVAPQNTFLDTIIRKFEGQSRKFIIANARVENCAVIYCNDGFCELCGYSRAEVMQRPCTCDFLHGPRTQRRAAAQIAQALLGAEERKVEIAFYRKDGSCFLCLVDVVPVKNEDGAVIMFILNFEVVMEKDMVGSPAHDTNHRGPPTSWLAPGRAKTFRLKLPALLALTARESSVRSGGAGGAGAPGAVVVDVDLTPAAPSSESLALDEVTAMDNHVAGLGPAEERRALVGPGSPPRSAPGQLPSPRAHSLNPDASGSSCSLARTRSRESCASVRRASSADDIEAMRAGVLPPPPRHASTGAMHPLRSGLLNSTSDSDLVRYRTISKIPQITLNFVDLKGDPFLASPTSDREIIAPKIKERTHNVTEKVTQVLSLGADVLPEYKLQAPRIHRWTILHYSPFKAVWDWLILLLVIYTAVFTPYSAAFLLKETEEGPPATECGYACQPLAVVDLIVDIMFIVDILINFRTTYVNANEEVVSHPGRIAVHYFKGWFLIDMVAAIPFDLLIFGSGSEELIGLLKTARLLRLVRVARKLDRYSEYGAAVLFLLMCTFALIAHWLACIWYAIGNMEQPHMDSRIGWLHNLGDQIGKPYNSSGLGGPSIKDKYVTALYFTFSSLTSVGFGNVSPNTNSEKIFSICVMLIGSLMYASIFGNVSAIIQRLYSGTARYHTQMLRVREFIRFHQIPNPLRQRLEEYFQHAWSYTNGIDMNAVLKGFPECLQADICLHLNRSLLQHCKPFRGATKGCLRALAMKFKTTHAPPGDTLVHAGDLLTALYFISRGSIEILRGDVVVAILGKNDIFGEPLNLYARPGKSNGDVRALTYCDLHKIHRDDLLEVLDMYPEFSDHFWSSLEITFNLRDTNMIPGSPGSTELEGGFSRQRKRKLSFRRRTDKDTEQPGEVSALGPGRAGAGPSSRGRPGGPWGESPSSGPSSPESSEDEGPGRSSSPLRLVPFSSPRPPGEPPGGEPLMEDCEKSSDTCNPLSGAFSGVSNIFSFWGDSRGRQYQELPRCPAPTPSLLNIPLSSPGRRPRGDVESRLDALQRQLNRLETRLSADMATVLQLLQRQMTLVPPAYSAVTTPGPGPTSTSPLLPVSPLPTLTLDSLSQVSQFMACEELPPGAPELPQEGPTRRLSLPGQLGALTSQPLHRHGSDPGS
Method: Inhibition of Specific Binding to the hERG-Receptor (HERGBD)
A HEK cell line with stable transfected human ERG receptor was used for the assay. The cells were grown adherently and maintained in DULBECCOS' MEM medium with 10% FBS, 1% non-essential amino acids, 1% Penicillin/Streptomycin and 400 μg/ml G418 (Calbiochem).
For binding assays and membrane preparations the cell culture medium was removed, cells were washed with PBS. Crude membranes for radioligand binding experiments were prepared by scraping the cells off the dishes in ice cold 20 mM HEPES/0.1 mM KCl/pH 7.2. The cell suspension was homogenized on ice (Ultra turrax, 3×20 sec.) and the homogenate was spun for 10 min (1° C., 1000 g, OPTIMA, SW28, 2800 U/min). The supernatant was than centrifuged for 40 min at 100000 g (1° C., OPTIMA, SW28, 23000 U/min). The membrane pellet was resuspended in 20 mM HEPES/0.1 mM KCl/pH 7.2, frozen and stored at −80° C.
After thawing on the day of the assay, the membrane suspension was diluted further with 20 mM HEPES/0.1 mM KCl/pH 7.2.
The incubation mixture of 200 μl contained 1.5 nmol/l 3H-Dofetilide, optimized amount of membrane preparation, 20 mM HEPES/0.1 mM KCl/(pH 7.2) and inhibitor in 1% DMSO. Nonspecific binding was estimated in the presence of […] Dofetilide. The samples were incubated for 90 min. at RT.
Binding was terminated by filtration of the incubated membrane preparations using Filtermat B (Pharmacia, Uppsala Sweden) and a Micro Cell Harvester (Skatron, Lier, Norway). The Filtermat B had been presoaked with 1% polyethylenimine and carefully washed with 0.05 M Tris/HCl-buffer pH=7.7 after the filtration to separate free and bound radioactivity. The filters were counted in a scintillation counter (Betaplate 1205, Berthold, Wildbad, Germany) in order to determine the specific binding of [^3H]-Dofetilide.
The optimal amount of membrane preparation in the assay was determined and optimized for each membrane preparation separately in front of using the membranes in compound testing.
For pipetting of the incubation mixture we routinely use the robot Biomek2000 (Fa. Beckman).

[3] = target: T1, rat NR1/NR2B receptor; assay: RRNR2BB: inhibition of specific binding to the rat NR1/NR2B receptor; conditions: [3H]-Ifenprodil binding, rat brain membranes, Hill-plot 2-parameter-model
Method: RRNR2BB—Inhibition of Specific Binding to the Rat NR1/NR2B Receptor
as §1
Membrane fractions were prepared and tested using standard techniques. At the time of the assay, 1 g of the brains were placed into 25 ml of 50 mM Tris/10 mM EDTA buffer, pH=7.1, (25 vol. per g of original tissue) and was homogenized for 30 sec at 20000 U/min with an Ultraturrax T25 (Jahnke & Kunkel, IKA-Labortechnik, Staufen, Germany). The homogenate was centrifuged at 4° C. for 10 min at 48000 g (OPTIMA L-70, Beckman, Palo Alto, Calif. 94304, USA). The supernatant was discarded and the pellet was homogenized on ice for 30 sec at 20000 U/min with an Ultraturrax and again centrifuged at 48000 g for 30 minutes at 4° C. The resultant pellet was resuspended in 25 ml of 50 mM Tris/10 mM EDTA buffer, homogenized for 30 sec with an Ultraturrax, aliquoted, frozen at −70° C. and stored until use
as §2, with “aliquote” for “aliquot”, “pH=7.4,” for “pH 7.4,”, “U/min” for “rpm”, “This step” for “This”, “Tris/mM” for “Tris/l mM”, “assay.” for “assay as described in the following.”
Nonspecific binding was estimated in the presence of 10 M CP101.606. The samples were incubated for 60 min. at 4° C.
Binding was terminated by filtration of the incubated membrane preparations using Filtermat B (Pharmacia, Uppsala Sweden) and a Micro Cell Harvester (Skatron, Lier, Norway). The Filtermat B had been presoaked with 1% polyethylenimine and carefully washed with […] Tris/HCl-buffer pH=7.7 after the filtration to separate free and bound radioactivity.
For pipetting of the incubation mixture the robot Biomek2000 (Fa. Beckman) was used.
The IC50 values in the tables below were determined using the Hill-plot, 2-parameter-model.

T1 sequence (Q00960 27-1482, other chains not shown): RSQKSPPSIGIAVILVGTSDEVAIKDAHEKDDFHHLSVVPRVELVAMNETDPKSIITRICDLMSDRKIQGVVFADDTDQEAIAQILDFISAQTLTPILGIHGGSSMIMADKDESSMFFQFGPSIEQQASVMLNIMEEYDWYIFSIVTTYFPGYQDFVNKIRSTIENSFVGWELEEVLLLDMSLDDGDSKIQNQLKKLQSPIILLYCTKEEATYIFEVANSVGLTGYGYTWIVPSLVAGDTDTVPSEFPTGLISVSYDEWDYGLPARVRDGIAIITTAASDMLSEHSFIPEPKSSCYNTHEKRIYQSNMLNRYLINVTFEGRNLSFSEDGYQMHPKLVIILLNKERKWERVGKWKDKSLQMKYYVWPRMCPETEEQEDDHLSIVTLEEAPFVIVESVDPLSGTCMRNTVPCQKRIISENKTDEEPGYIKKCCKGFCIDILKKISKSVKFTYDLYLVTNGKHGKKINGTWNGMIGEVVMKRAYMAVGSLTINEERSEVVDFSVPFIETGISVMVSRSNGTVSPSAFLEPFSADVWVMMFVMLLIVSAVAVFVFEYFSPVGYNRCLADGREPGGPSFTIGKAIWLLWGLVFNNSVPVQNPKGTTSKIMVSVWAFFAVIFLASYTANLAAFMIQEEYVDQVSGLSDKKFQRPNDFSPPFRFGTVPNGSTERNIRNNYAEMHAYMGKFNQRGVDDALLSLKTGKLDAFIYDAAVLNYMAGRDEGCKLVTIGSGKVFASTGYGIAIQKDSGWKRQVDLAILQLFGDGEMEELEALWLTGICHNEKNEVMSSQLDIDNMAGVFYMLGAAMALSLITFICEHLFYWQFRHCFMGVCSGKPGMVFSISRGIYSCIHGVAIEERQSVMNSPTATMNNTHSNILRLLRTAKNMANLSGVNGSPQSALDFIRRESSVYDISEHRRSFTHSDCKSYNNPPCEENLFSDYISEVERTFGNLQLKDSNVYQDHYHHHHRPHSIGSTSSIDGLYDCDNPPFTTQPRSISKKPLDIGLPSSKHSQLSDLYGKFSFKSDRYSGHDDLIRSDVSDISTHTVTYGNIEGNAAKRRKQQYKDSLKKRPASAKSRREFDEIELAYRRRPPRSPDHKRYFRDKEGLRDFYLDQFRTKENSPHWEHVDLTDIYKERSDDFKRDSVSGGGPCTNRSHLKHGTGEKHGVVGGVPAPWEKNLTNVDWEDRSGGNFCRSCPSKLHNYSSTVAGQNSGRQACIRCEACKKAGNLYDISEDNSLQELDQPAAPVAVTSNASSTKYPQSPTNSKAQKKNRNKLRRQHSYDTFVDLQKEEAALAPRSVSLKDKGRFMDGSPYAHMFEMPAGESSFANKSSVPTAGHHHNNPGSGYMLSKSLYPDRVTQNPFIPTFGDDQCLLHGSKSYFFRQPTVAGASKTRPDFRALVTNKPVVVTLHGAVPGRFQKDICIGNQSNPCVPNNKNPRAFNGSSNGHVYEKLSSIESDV

Compound: CCCCc1nccn1Cc1cn(-c2ccc(F)c(Cl)c2)nn1 [Example 45, 4-(2-Butyl-imidazol-1-ylmethyl)-1-(3-chloro-4-fluoro-phenyl)-1H-[1,2,3]triazole]
IC50 [1]: 0.00768 µM
IC50 [2]: 0.539 µM
IC50 [3]: 0.00768 µM

Compound: Cc1nccn1Cc1cn(-c2ccc(Cl)cc2Cl)nn1 [Example 49, 1-(2,4-Dichloro-phenyl)-4-(2-methyl-imidazol-1-ylmethyl)-1H-[1,2,3]triazole]
IC50 [1]: 0.778 µM
IC50 [2]: 4.53 µM
IC50 [3]: 0.778 µM

Compound: Cc1nccn1Cc1cn(-c2ccc(Cl)c(F)c2)nn1 [Example 50, 1-(4-Chloro-3-fluoro-phenyl)-4-(2-methyl-imidazol-1-ylmethyl)-1H-[1,2,3]triazole]
IC50 [1]: 0.0212 µM
IC50 [2]: 3.39 µM
IC50 [3]: 0.0212 µM

Compound: COc1cc(F)ccc1-n1cc(Cn2ccnc2C)nn1 [Example 52, 1-(4-Fluoro-2-methoxy-phenyl)-4-(2-methyl-imidazol-1-ylmethyl)-1H-[1,2,3]triazole]
IC50 [1]: 1.18 µM
IC50 [2]: 41.7 µM
IC50 [3]: 1.18 µM

Compound: Cc1cc(-n2cc(Cn3ccnc3C)nn2)ccc1Cl [Example 55, 1-(4-Chloro-3-methyl-phenyl)-4-(2-methyl-imidazol-1-ylmethyl)-1H-[1,2,3]triazole]
IC50 [1]: 0.00164 µM
IC50 [2]: 4.71 µM
IC50 [3]: 0.00164 µM

Compound: COc1cc(F)ccc1-n1cc(Cn2ccnc2C2CC2)nn1 [Example 62, 4-(2-Cyclopropyl-imidazol-1-ylmethyl)-1-(4-fluoro-2-methoxy-phenyl)-1H-[1,2,3]triazole]
IC50 [1]: 3.32 µM
IC50 [2]: 45.9 µM
IC50 [3]: 3.32 µM

Compound: Cc1ccc(-n2cc(Cn3ccnc3C3CC3)nn2)cc1F [Example 63, 4-(2-Cyclopropyl-imidazol-1-ylmethyl)-1-(3-fluoro-4-methyl-phenyl)-1H-[1,2,3]triazole]
IC50 [1]: 0.0871 µM
IC50 [2]: 11.2 µM
IC50 [3]: 0.0871 µM

Compound: FC(F)(F)c1cc(-n2cc(Cn3ccnc3C3CC3)nn2)ccc1Cl [Example 66, 1-(4-Chloro-3-trifluoromethyl-phenyl)-4-(2-cyclopropyl-imidazol-1-ylmethyl)-1H-[1,2,3]triazole]
IC50 [1]: 0.038 µM
IC50 [2]: 3.54 µM
IC50 [3]: 0.038 µM

Compound: FC(F)(F)Oc1cccc(-n2cc(Cn3ccnc3C3CC3)nn2)c1 [Example 67, 4-(2-Cyclopropyl-imidazol-1-ylmethyl)-1-(3-trifluoromethoxy-phenyl)-1H-[1,2,3]triazole]
IC50 [1]: 0.0345 µM
IC50 [2]: 2.55 µM
IC50 [3]: 0.0345 µM

Compound: FC(F)(F)c1cccc(-n2cc(Cn3ccnc3C3CC3)nn2)c1 [Example 68, 4-(2-Cyclopropyl-imidazol-1-ylmethyl)-1-(3-trifluoromethyl-phenyl)-1H-[1,2,3]triazole]
IC50 [1]: 0.0916 µM
IC50 [2]: 5.12 µM
IC50 [3]: 0.0916 µM

Compound: CCc1nccn1Cc1cn(-c2ccc(Cl)c(C)c2)nn1 [Example 70, 1-(4-Chloro-3-methyl-phenyl)-4-(2-ethyl-imidazol-1-ylmethyl)-1H-[1,2,3]triazole]
IC50 [1]: 0.00184 µM
IC50 [2]: 3.92 µM
IC50 [3]: 0.00184 µM

Second part, led by results:

IC50 [1]: 0.00701 µM
IC50 [3]: 0.00701 µM
Compound: Cc1nccn1Cc1cn(-c2ccc(F)c(Cl)c2)nn1 [Example 51, 1-(3-Chloro-4-fluoro-phenyl)-4-(2-methyl-imidazol-1-ylmethyl)-1H-[1,2,3]triazole]
IC50 [2]: 4.97 µM

IC50 [1]: 0.0265 µM
IC50 [3]: 0.0265 µM
Compound: Cc1ccc(-n2cc(Cn3ccnc3C)nn2)cc1F [Example 53, 1-(3-Fluoro-4-methyl-phenyl)-4-(2-methyl-imidazol-1-ylmethyl)-1H-[1,2,3]triazole]
IC50 [2]: 6.41 µM

IC50 [1]: 0.00532 µM
IC50 [3]: 0.00532 µM
Compound: Cc1cc(-n2cc(Cn3ccnc3C)nn2)ccc1F [Example 54, 1-(4-Fluoro-3-methyl-phenyl)-4-(2-methyl-imidazol-1-ylmethyl)-1H-[1,2,3]triazole]
IC50 [2]: 6.21 µM

IC50 [1]: 0.0119 µM
IC50 [3]: 0.0119 µM
Compound: Cc1nccn1Cc1cn(-c2ccc(Cl)c(C(F)(F)F)c2)nn1 [Example 56, 1-(4-Chloro-3-trifluoromethyl-phenyl)-4-(2-methyl-imidazol-1-ylmethyl)-1H-[1,2,3]triazole]
IC50 [2]: 6.46 µM

IC50 [1]: 0.00721 µM
IC50 [3]: 0.00721 µM
Compound: Cc1nccn1Cc1cn(-c2cccc(OC(F)(F)F)c2)nn1 [Example 57, 4-(2-Methyl-imidazol-1-ylmethyl)-1-(3-trifluoromethoxy-phenyl)-1H-[1,2,3]triazole]
IC50 [2]: 8.59 µM

IC50 [1]: 0.0174 µM
IC50 [3]: 0.0174 µM
Compound: Cc1nccn1Cc1cn(-c2cccc(C(F)(F)F)c2)nn1 [Example 58, 4-(2-Methyl-imidazol-1-ylmethyl)-1-(3-trifluoromethyl-phenyl)-1H-[1,2,3]triazole]
IC50 [2]: 15 µM

IC50 [1]: 0.046 µM
IC50 [3]: 0.046 µM
Compound: Cc1nccn1Cc1cn(-c2ccc(C(F)(F)F)cc2)nn1 [Example 59, 4-(2-Methyl-imidazol-1-ylmethyl)-1-(4-trifluoromethyl-phenyl)-1H-[1,2,3]triazole]
IC50 [2]: 6.27 µM

IC50 [1]: 0.173 µM
IC50 [3]: 0.173 µM
Compound: FC(F)(F)c1ccc(-n2cc(Cn3ccnc3C3CC3)nn2)cc1 [Example 69, 4-(2-Cyclopropyl-imidazol-1-ylmethyl)-1-(4-trifluoromethyl-phenyl)-1H-[1,2,3]triazole]
IC50 [2]: 4.41 µM
